The values below come from patent US20260355199A1, “COMPOSITIONS AND METHODS FOR TREATING OR PREVENTING NONALCOHOLIC STEATOHEPATITIS (NASH), ANOREXIA, DEPRESSION, ENDOMETRIOSIS, AND OTHER DISEASES OR DISORDERS” (priority 2022, published 2026).

One experiment can be described thus: Plasma corticosterone. Type of experiment: in vivo, mouse. The note with it: ABA mice. How it is done:
For corticosterone, blood samples were obtained via retroorbital bleeding between 19:00 and 20:00. For alanine transaminase, aspartate transaminase and bilirubin, blood samples were collected by cardiac puncture of terminally anesthetized animals. All blood samples were collected in EDTA tubes (Microtainer with K2EDTA, BD, 365974). The tubes were centrifuged at 2,000×g at 4 °C for 20 min, and plasma was collected and stored at −80 °C until use. Plasma corticosterone levels were measured using Corticosterone ELISA kit (Enzo, ADI-900-097) according to the manufacturer's instructions. Kits used to measure alanine transaminase (EALT-100) and aspartate transaminase (EASTR-100) were purchased from Bioassay Systems. The bilirubin assay kit (MAK126) was purchased from Sigma Aldrich.

The test system of another experiment is OC-bearing mice. The experiment can be described thus: Ovarian cancer (ID8-luc2)-induced anorexia model. Type of experiment: in vivo. The note with it: 0.05 mg/mouse once a week i.p. From the text: Furthermore, the present studies use the luciferase-expressing mouse ovarian surface epithelial cancer cell line ID8-luc2 (Liao J B et al., 2015, J Immunother Cancer, 3:16) that was originally derived from C57BL/6 mice (Roby K F et al., 2000, Carcinogenesis, 21:585-591). ID8-luc2 allow in vivo imaging of intraperitoneal tumors to monitor tumor growth (Udumula M P et al., 2021, Mol Metab., 53:101272; Liao J B et al., 2015, J Immunother Cancer, 3:16). Agrp-IRES-Cre::LSL-Cas9-GFP mice (C57BL/6 background) that express GFP specifically in AgRP neurons are used, hereafter called AgRP-GFP. […] Tumors were readily detected by bioluminescent imaging 10-14 days after inoculation (Udumula M P et al., 2021, Mol Metab., 53:101272; Liao J B et al., 2015, J Immunother Cancer, 3:16). Visible ascites (detected by abdominal swelling) developed at ~3 weeks following implantation (Roby K F et al., 2000, Carcinogenesis, 21:585-591). […] Bioluminescence signals of the tumor are recorded using the Xenogen IVIS system. Food intake is monitored manually on a daily basis and energy expenditure is measured using a computer-controlled indirect calorimetry system.
Additional studies test whether Bobcat339 alleviates OC-induced anorexia and hypermetabolism. […] Food intake are monitored daily and energy expenditure are determined once a week for three weeks before euthanasia. […]

For `Nc1nc(=O)n(-c2cccc(-c3ccccc3)c2)cc1Cl` [Bobcat339, 4-Amino-1-[1,1′-biphenyl]-3-yl-5-chloro-2(1H)-pyrimidinone], the plasma cortisol levels result in the experiment “Plasma corticosterone” was “reduced plasma cortisol levels”. In the experiment on OC-bearing mice, the OC progression entry is reported as “decreased OC progression”; the “cancer anorexia and hypermetabolism” value was “not only prevents cancer anorexia and hypermetabolism from developing but eliminates it after it is established”.
